Measurements from patent US20150051203A1, “TRIAZOLE DERIVATIVES AS HSP90 INHIBITORS” (Synta Pharmaceuticals Corp., priority 2012, published 2015).
Where two headings read alike, the source gives them in different places.

Columns and labels:
Her2 = experiment: Degradation of Her2 in BT-474 cells (Western blot, Method 1); format: cell-based, Human; settings: 0.5 μM, overnight
Method: BT-474 cells are treated with 0.5 μM, 2 μM, or 5 μM of 17AAG (a positive control) or 0.5 μM, 2 μM, or 5 μM of a compound of the invention overnight in DMEM medium. After treatment, each cytoplasmic sample is prepared from 1×10^6 cells by incubation of cell lysis buffer (#9803, Cell Signaling Technology) on ice for 10 minutes. The resulting supernatant used as the cytosol fractions is dissolved with sample buffer for SDS-PAGE and run on a SDS-PAGE gel, blotted onto a nitrocellulose membrane by using semi-dry transfer. Non-specific binding to nitrocellulose is blocked with 5% skim milk in TBS with 0.5% Tween at room temperature for 1 hour, then probed with anti-Her2/ErB2 mAb (rabbit IgG, #2242, Cell Signaling) and anti-Tubulin (T9026, Sigma) as housekeeping control protein. HRP-conjugated goat anti-rabbit IgG (H+L) and HRP-conjugated horse anti-mouse IgG (H+L) are used as secondary Ab (#7074, #7076, Cell Signaling) and LumiGLO reagent, 20× Peroxide (#7003, Cell Signaling) is used for visualization.
BT-474 cells were treated with 0.5 μM, 2 μM, or 5 μM of 17AAG (a positive control) or 0.5 μM, 2 μM, or 5 μM of a compound of the invention overnight in DMEM medium. After treatment, each cytoplasmic sample was prepared from 1×10^6 cells by incubation of cell lysis buffer (#9803, Cell Signaling Technology) on ice for 10 minutes. […]

[1] = Caco-2 permeability assay; format: in vitro ADME; settings: human
Method: Caco-2 cells were cultured on 24-well plates at 0.8×10^5 cells/cm^2 for approximately 20 days until TEER values were above 300 Ωcm^2. Caco-2 monolayers were rinsed twice with transport buffer (HBSS supplemented with 10 mM HEPES and 25 mM glucose, pH 7.4) and then pre-incubated for 30 min. Test and control compound solutions were loaded into the donor (A) or acceptor (B) compartments of a 24-well plate and incubated at 37° C. with 5% CO2 and 65% humidity for 2 h. For A to B permeability, the donor wells contained test compound and corresponding acceptor wells contained transport buffer. For B to A permeability, the […]. Atenolol and propranolol were used as low and high permeability compound controls, respectively. Digoxin was used was a P-gp substrate control. Cell viability was tested with Lucifer yellow at the end of the study.
Permeability was calculated as follows:
[formula] PappA to B={0.0005376×([Drug] Acceptor/[Drug] Initial)}
PappB to A={0.0001792×([Drug] Acceptor/[Drug] Initial)}
Polarization Ratio=PappB to A/PappA to B
Polarization ratio >2 considered as an efflux (P-gp) substrate.

[2] = Exploratory small molecule PK study in rats; format: in vivo, male Sprague-Dawley rats; parameters: AUClast: unit not given here; settings: rat; for half-life: male, Sprague-Dawley, plasma, read-out: T½ (converted)
Method: PK studies were conducted in male Sprague-Dawley rats. One group was dosed by IV (n=2) and another group was dosed orally (n=3). Blood samples were collected in lithium heparin coated microfuge tubes at 5 (IV only), 15, 30 min, 1, 3, 4, 6, 8, 24 h post dose. Samples were then centrifuged under refrigerated conditions and plasma was collected for analysis.
A solvent-based protein precipitation procedure was used to measure the concentration of each compound in plasma and/or whole blood. Samples were analyzed with an Agilent 1100 HPLC (Santa Clara, Calif.) interfaced to an API 4000 tandem mass spectrometer (Applied Biosystems, Foster City, Calif.) using a Synergy, Hydro-RP column (4 μm, 2×50 mm; Phenomenex, Torrance, Calif.) at a flow rate of 0.5 ml/min. Mobile phase consisted of 10 mM ammonium acetate in water (A) and 10 mM ammonium acetate in 95/5 (v/v) methanol/water (B). Total run time was 5 min with the gradient elution. […] All standard curves were fit to a quadratic equation with a weighing factor of 1/(concentration)^2 to calculate compound concentrations.

SMILES | degradation of Her2 (Her2) | Papp A→B at 2 h ([1]; A to B, 2 h, 37° C., pH 7.4) [×10⁻⁶ cm/s] | efflux ratio at 2 h ([1]; pH 7.4, ratio >2 considered as an efflux (P-gp) substrate, read-out: Pol. Ratio B-A/A-B) | half-life ([2]; IV 5 mg/Kg, DPD) [h] | half-life ([2]; PO 25 mg/Kg, D5W) [h] | AUClast ([2]; IV 5 mg/Kg, DPD) | F ([2]; PO 25 mg/Kg D5W vs IV 5 mg/Kg DPD) [%] | AUClast ([2]; PO 25 mg/Kg, D5W)
C=CCNC1=C2C[C@@H](C)C[C@H](OC)[C@H](O)[C@@H](C)/C=C(\C)[C@H](OC(N)=O)[C@@H](OC)/C=C\C=C(/C)C(=O)NC(=CC1=O)C2=O [Compound 17AAG, 17-allylamino-17-demethoxygeldanamycin] | partial degradation of Her2 | – | – | – | – | – | – | –
CC(C)c1n[nH]c2cc(O)c(-c3nnc(C(=O)NCC(F)(F)F)n3-c3ccc(N4CCOCC4)cc3)cc12 [Compound 38, 5-(6-hydroxy-3-isopropyl-1H-indazol-5-yl)-4-(4-morpholinophenyl)-N-(2,2,2-trifluoroethyl)-4H-1,2,4-triazole-3-carboxamide] | – | 12.4 | 2 | 2.3 | 10.7 | 2.6 | 0.52 | 0.07
